Source: PubChem BioAssay AID1259407 (Chemical Carcinogenesis Research Information System (CCRIS), 2018)
Active and inactive are the calls of the source. No rule for the calls is given here.

System: CCRIS mutagenicity, Ames/micronucleus/aberration tests
Assay: CCRIS mutagenicity studies
[1] = Test System: AMES SALMONELLA TYPHIMURIUM, Strain/Indicator: TA97A, Metabolic Activation: NONE, Method: STANDARD PLATE
[2] = Test System: AMES SALMONELLA TYPHIMURIUM, Strain/Indicator: TA98, Metabolic Activation: NONE, Method: STANDARD PLATE
[3] = Test System: AMES SALMONELLA TYPHIMURIUM, Strain/Indicator: TA98, Metabolic Activation: RAT, LIVER, S-9, AROCLOR 1254, Method: STANDARD PLATE
[4] = Test System: AMES SALMONELLA TYPHIMURIUM, Strain/Indicator: TA100, Metabolic Activation: NONE, Method: STANDARD PLATE
[5] = Test System: AMES SALMONELLA TYPHIMURIUM, Strain/Indicator: TA1535, Metabolic Activation: NONE, Method: STANDARD PLATE
[6] = Test System: AMES SALMONELLA TYPHIMURIUM, Strain/Indicator: TA1537, Metabolic Activation: NONE, Method: STANDARD PLATE
[7] = Test System: AMES SALMONELLA TYPHIMURIUM, Strain/Indicator: TA98, Metabolic Activation: NONE, Method: PREINCUBATION
[8] = Test System: AMES SALMONELLA TYPHIMURIUM, Strain/Indicator: TA100, Metabolic Activation: NONE, Method: PREINCUBATION

Structure (SMILES): CC(C)Cc1ccc(C(C)C(=O)O)cc1 (stereo not drawn)
- mutagenic call [1]: inactive; negative
- mutagenic call (Test System: AMES SALMONELLA TYPHIMURIUM, Strain/Indicator: TA97A, Metabolic Activation: RAT, LIVER, S-9, PHENOBARBITAL, Method: STANDARD PLATE): inactive; negative
- mutagenic call (Test System: AMES SALMONELLA TYPHIMURIUM, Strain/Indicator: TA98, Metabolic Activation: HAMSTER, LIVER, S-9, AROCLOR 1254, Method: STANDARD PLATE): inactive; negative
- mutagenic call (Test System: AMES SALMONELLA TYPHIMURIUM, Strain/Indicator: TA98, Metabolic Activation: MOUSE, LIVER, S-9, AROCLOR 1254, Method: STANDARD PLATE): inactive; negative
- mutagenic call [2]: inactive; negative
- mutagenic call [3]: inactive; negative
- mutagenic call (Test System: AMES SALMONELLA TYPHIMURIUM, Strain/Indicator: TA100, Metabolic Activation: HAMSTER, LIVER, S-9, AROCLOR 1254, Method: STANDARD PLATE): inactive; negative
- mutagenic call (Test System: AMES SALMONELLA TYPHIMURIUM, Strain/Indicator: TA100, Metabolic Activation: MOUSE, LIVER, S-9, AROCLOR 1254, Method: STANDARD PLATE): inactive; negative
- mutagenic call [4]: inactive; negative
- mutagenic call (Test System: AMES SALMONELLA TYPHIMURIUM, Strain/Indicator: TA100, Metabolic Activation: RAT, LIVER, S-9, AROCLOR 1254, Method: STANDARD PLATE): inactive; negative
- mutagenic call (Test System: AMES SALMONELLA TYPHIMURIUM, Strain/Indicator: TA100, Metabolic Activation: RAT, LIVER, S-9, PHENOBARBITAL, Method: STANDARD PLATE): inactive; negative
- mutagenic call (Test System: AMES SALMONELLA TYPHIMURIUM, Strain/Indicator: TA102, Metabolic Activation: NONE, Method: STANDARD PLATE): inactive; negative
- mutagenic call (Test System: AMES SALMONELLA TYPHIMURIUM, Strain/Indicator: TA102, Metabolic Activation: RAT, LIVER, S-9, PHENOBARBITAL, Method: STANDARD PLATE): inactive; negative
- mutagenic call (Test System: AMES SALMONELLA TYPHIMURIUM, Strain/Indicator: TA1535, Metabolic Activation: HAMSTER, LIVER, S-9, AROCLOR 1254, Method: STANDARD PLATE): inactive; negative
- mutagenic call (Test System: AMES SALMONELLA TYPHIMURIUM, Strain/Indicator: TA1535, Metabolic Activation: MOUSE, LIVER, S-9, AROCLOR 1254, Method: STANDARD PLATE): inactive; negative
- mutagenic call [5]: inactive; negative
- mutagenic call (Test System: AMES SALMONELLA TYPHIMURIUM, Strain/Indicator: TA1535, Metabolic Activation: RAT, LIVER, S-9, AROCLOR 1254, Method: STANDARD PLATE): inactive; negative
- mutagenic call (Test System: AMES SALMONELLA TYPHIMURIUM, Strain/Indicator: TA1537, Metabolic Activation: HAMSTER, LIVER, S-9, AROCLOR 1254, Method: STANDARD PLATE): inactive; negative
- mutagenic call (Test System: AMES SALMONELLA TYPHIMURIUM, Strain/Indicator: TA1537, Metabolic Activation: MOUSE, LIVER, S-9, AROCLOR 1254, Method: STANDARD PLATE): inactive; negative
- mutagenic call [6]: inactive; negative
- mutagenic call (Test System: AMES SALMONELLA TYPHIMURIUM, Strain/Indicator: TA1537, Metabolic Activation: RAT, LIVER, S-9, AROCLOR 1254, Method: STANDARD PLATE): inactive; negative
- mutagenic call (Test System: AMES SALMONELLA TYPHIMURIUM, Strain/Indicator: TA1538, Metabolic Activation: HAMSTER, LIVER, S-9, AROCLOR 1254, Method: STANDARD PLATE): inactive; negative
- mutagenic call (Test System: AMES SALMONELLA TYPHIMURIUM, Strain/Indicator: TA1538, Metabolic Activation: MOUSE, LIVER, S-9, AROCLOR 1254, Method: STANDARD PLATE): inactive; negative
- mutagenic call (Test System: AMES SALMONELLA TYPHIMURIUM, Strain/Indicator: TA1538, Metabolic Activation: NONE, Method: STANDARD PLATE): inactive; negative
- mutagenic call (Test System: AMES SALMONELLA TYPHIMURIUM, Strain/Indicator: TA1538, Metabolic Activation: RAT, LIVER, S-9, AROCLOR 1254, Method: STANDARD PLATE): inactive; negative

Structure (SMILES): O=[N+]([O-])c1ccc2c3ccccc3c3c([N+](=O)[O-])ccc4ccc1c2c43
- mutagenic call [2]: active; positive
- mutagenic call [3]: active; positive

Structure (SMILES): O=[N+]([O-])c1ccc2c(CCO)c[nH]c2c1
- mutagenic call [1]: active; positive
- mutagenic call (Test System: AMES SALMONELLA TYPHIMURIUM, Strain/Indicator: TA98(1,8-DNP6), Metabolic Activation: NONE, Method: STANDARD PLATE): active; positive
- mutagenic call (Test System: AMES SALMONELLA TYPHIMURIUM, Strain/Indicator: TA98(NR), Metabolic Activation: NONE, Method: STANDARD PLATE): active; positive
- mutagenic call (Test System: AMES SALMONELLA TYPHIMURIUM, Strain/Indicator: TA98, Metabolic Activation: NONE, Method: SEM (1.1) 100-2000 NM (TEST MATERIAL SOLVENT: DMSO) 100-2000 N 2000 N): active; positive
- mutagenic call [4]: active; positive
- mutagenic call [5]: inactive; negative
- mutagenic call [6]: active; positive

Structure (SMILES): Nc1ccc(NC(=O)c2ccc(N)cc2)cc1
- mutagenic call [7]: inactive; negative
- mutagenic call (Test System: AMES SALMONELLA TYPHIMURIUM, Strain/Indicator: TA98, Metabolic Activation: RAT LIVER S-9, PHENOBARBITAL AND BETA-NAPHTHOFLAVONE, Method: PREINCUBATION): active; positive
- mutagenic call [8]: inactive; negative
- mutagenic call (Test System: AMES SALMONELLA TYPHIMURIUM, Strain/Indicator: TA100, Metabolic Activation: RAT LIVER S-9, PHENOBARBITAL AND BETA-NAPHTHOFLAVONE, Method: PREINCUBATION): inactive; negative
- mutagenic call (Test System: AMES SALMONELLA TYPHIMURIUM, Strain/Indicator: TA1535, Metabolic Activation: NONE, Method: PREINCUBATION): inactive; negative
- mutagenic call (Test System: AMES SALMONELLA TYPHIMURIUM, Strain/Indicator: TA1535, Metabolic Activation: RAT LIVER S-9, PHENOBARBITAL AND BETA-NAPHTHOFLAVONE, Method: PREINCUBATION): inactive; negative
- mutagenic call (Test System: AMES SALMONELLA TYPHIMURIUM, Strain/Indicator: TA1537, Metabolic Activation: RAT LIVER S-9, PHENOBARBITAL AND BETA-NAPHTHOFLAVONE, Method: PREINCUBATION): active; positive
- mutagenic call (Test System: E.COLI, Strain/Indicator: WP2UVRA, Metabolic Activation: NONE, Method: PREINCUBATION): inactive; negative
- mutagenic call (Test System: E.COLI, Strain/Indicator: WP2UVRA, Metabolic Activation: RAT LIVER S-9, PHENOBARBITAL AND BETA-NAPHTHOFLAVONE, Method: PREINCUBATION): inactive; negative

Structure (SMILES): COc1cccc2c1C1(C)OOC1(C)O2 (stereo not drawn)
- mutagenic call [8]: active; positive

Structure (SMILES): Nc1ccc(Oc2ccc(N)c(N)c2)cc1
- mutagenic call [7]: inactive; negative
- mutagenic call (Test System: AMES SALMONELLA TYPHIMURIUM, Strain/Indicator: TA98, Metabolic Activation: RAT, LIVER, S-9, PCB, Method: PREINCUBATION): active; positive
- mutagenic call [8]: inactive; negative
- mutagenic call (Test System: AMES SALMONELLA TYPHIMURIUM, Strain/Indicator: TA100, Metabolic Activation: RAT, LIVER, S-9, PCB, Method: PREINCUBATION): active; positive
